The values that follow come from patent US5525599A, “7-substituted-amino-3-substituted-3-cephem-4-carboxylic acids” (Eli Lilly and Company, priority 1993, dated 1996).

One test has as its system other Gram(-) bacteria. Briefly: In vitro activity (MIC), agar dilution method. It is filed as cell-based. A general note: In agar dilution the substance is mixed into plates at graded concentrations.
A further test concerns Gram-positive bacteria. The conditions noted are these: in words; background statement; cited from earlier work.
The test system of the next test is Staph. epiderm. (222). Briefly: In vitro activity (MIC), agar dilution method. It is filed as cell-based. Particulars: Staphylococcus epidermidis. How it is done: (§1) Cephalosporins 9a-o were assayed against a broad array of Gram-positive and Gram-negative bacteria in Mueller-Hinton agar by the 2-fold serial dilution method, (Kirst, H. A.; J. Antibiot. 1982, 35, 1675).
(§2) Test compounds were diluted to an appropriate range of concentrations in 0.1M phosphate buffer (pH 7), incorporated into Mueller-Hinton agar (difco) supplemented with 1% Bacto-Supplement C (Difco) at 50° C. and allowed to solidify in petri dishes. Fresh overnight cultures of test bacteria were diluted to approximately 1×10^4 cells/mL aand applied in […] to the surface of the agar plates. The inoculated plates were incubated overnight at 35° C. in ambient air. MIC endpoints were recorded as the lowest antibiotic concentrations that inhibited the development of visible bacterial growth on the plates.

The test system of the next test is K. pneumonia (X68). Briefly: In vitro activity (MIC), agar dilution method. It is filed as cell-based. The conditions noted are these: Klebsiella pneumoniae. How it is done: as §1, §2
In a further test the test system is E. coli (TEM). Nature of the test: In vitro activity (MIC), agar dilution method. It is filed as cell-based. The conditions noted are these: Escherichia coli. How it is done:
as §1, §2

In a further test the test system is H. influenzae (76). Nature of the test: In vitro activity (MIC), agar dilution method. In kind it is cell-based. Particulars: Haemophilus influenzae. How it is done: as §1, §2
For another test, the system named is Strept. pyogenes (C203). Briefly: In vitro activity (MIC), agar dilution method. It is filed as cell-based. The conditions noted are these: Streptococcus pyogenes. The method, then: as §1, §2
In the next test the test system is Staph. aureus (S13E). Nature of the test: In vitro activity (MIC), agar dilution method. It is filed as cell-based. Particulars: Staphylococcus aureus. How it is done: as §1, §2
Another test concerns Enter. faecium (X66). Nature of the test: In vitro activity (MIC), agar dilution method. The conditions noted are these: Enterococcus faecium. It is filed as cell-based. The method, then: as §1, §2
A further test relates to Staph. aureus (V41). Nature of the test: In vitro activity (MIC), agar dilution method. It is filed as cell-based. Particulars: Staphylococcus aureus. How it is done: as §1, §2
In the next test the test system is Staph. aureus (X400). Nature of the test: In vitro activity (MIC), agar dilution method. In kind it is cell-based. The conditions noted are these: Staphylococcus aureus. The method, then:
as §1, §2

The next test relates to H. influenzae (C.L.). Briefly: In vitro activity (MIC), agar dilution method. Particulars: Haemophilus influenzae. In kind it is cell-based. How it is done:
as §1, §2

In another test the test system is E. coli (EC14). Briefly: In vitro activity (MIC), agar dilution method. In kind it is cell-based. The conditions noted are these: Escherichia coli. The method, then: as §1, §2
For another test, the system named is E. coli (N10). Briefly: In vitro activity (MIC), agar dilution method. It is filed as cell-based. The conditions noted are these: Escherichia coli. The method, then: as §1, §2
In the next test the test system is Enter. faecalis (2041). Nature of the test: In vitro activity (MIC), agar dilution method. It is filed as cell-based. The conditions noted are these: Enterococcus faecalis. How it is done:
as §1, §2

The test system of another test is K. pneumonia (KAE). Briefly: In vitro activity (MIC), agar dilution method. Particulars: Klebsiella pneumoniae. It is filed as cell-based. The method, then:
as §1, §2

A further test deals with K. pneumonia (X26). Briefly: In vitro activity (MIC), agar dilution method. In kind it is cell-based. The conditions noted are these: Klebsiella pneumoniae. The method, then: as §1, §2
For another test, the system named is Staph. aureus (X1.1). Briefly: In vitro activity (MIC), agar dilution method. In kind it is cell-based. Particulars: Staphylococcus aureus. The method, then: as §1, §2
The test system of test [1] is 33 strains of methicillin-resistant staphylococci. Nature of the test: Geometric mean MICs against 33 strains of methicillin-resistant staphylococci. It is filed as cell-based. The conditions noted are these: for MIC: 33 strains, read-out: Geometric mean MIC. The method, then: as §2
It is known that resistance to methicillin in staphylococci is often of the heterogeneous type and therefore not easily detected. […] (Goldstein, F. W.; Acar, J. J. Antimicrob. Chemother. […], 27, 549). […] J.; Drake T. A.; Rusnak, M. G.; Sande, M. A. J. Infect. Dis. 1984, 149, 894).

A further test deals with Staph. epiderm. (270). Nature of the test: In vitro activity (MIC), agar dilution method. It is filed as cell-based. The conditions noted are these: Staphylococcus epidermidis, methicillin-resistant strain. The method, then: as §1, §2
Test [2] is described as follows: MICs against 4 strains of methicillin-resistant staphylococci. It is filed as cell-based, Staphylococcus aureus and Staphylococcus epidermidis. Particulars: Staphylococcus aureus, read-out: minimal inhibitory concentrations (MICs). The method, then:
as §1, §2

Test [3] has as its system methicillin-resistant staphylococci. The conditions noted are these: in words; Frongillo 1984; cited from earlier work.
Test [4] shares this test system. Particulars: in words; Frongillo 1986; cited from earlier work.
The test system is the same in test [5]. Particulars: in words; Chambers 1984; cited from earlier work.

Values after ≈ are worked out from the molar mass of the structure shown. Like-named read-outs stand apart in the source and are kept apart here.

For the compound `CN[C@H](CC(C)C)C(=O)N[C@H]1C(=O)N[C@@H](CC(N)=O)C(=O)N[C@H]2C(=O)N[C@H]3C(=O)N[C@H](C(=O)N[C@H](C(=O)O)c4cc(O)cc(O)c4-c4cc3ccc4O)[C@H](O)c3ccc(c(Cl)c3)Oc3cc2cc(c3O[C@@H]2O[C@H](CO)[C@@H](O)[C@H](O)[C@H]2O[C@H]2C[C@](C)(N)[C@H](O)[C@H](C)O2)Oc2ccc(cc2Cl)[C@H]1O` [Vanc, Vancomycin, reference compound], the MIC was 128 µg/mL (≈ 88.3 µM) with other Gram(-) bacteria; 0.5 µg/mL (≈ 0.345 µM) against Staph. epiderm. (222); 128 µg/mL (≈ 88.3 µM) against K. pneumonia (X68); 128 µg/mL (≈ 88.3 µM) against E. coli (TEM); 128 µg/mL (≈ 88.3 µM) in the test on H. influenzae (76); 0.5 µg/mL (≈ 0.345 µM) with Strept. pyogenes (C203). Besides, the MIC in the test with Staph. aureus (S13E) was determined as 0.5 µg/mL (≈ 0.345 µM); in the test with Enter. faecium (X66), 0.5 µg/mL (≈ 0.345 µM); in the test on Staph. aureus (V41), 0.5 µg/mL (≈ 0.345 µM); against Staph. aureus (X400), 0.5 µg/mL (≈ 0.345 µM); against H. influenzae (C.L.), 64 µg/mL (≈ 44.2 µM); in the test with E. coli (EC14) it was 128 µg/mL (≈ 88.3 µM). In addition, the MIC was found to be 128 µg/mL (≈ 88.3 µM) against E. coli (N10); 2 µg/mL (≈ 1.38 µM) against Enter. faecalis (2041); 128 µg/mL (≈ 88.3 µM) against K. pneumonia (KAE); 128 µg/mL (≈ 88.3 µM) in the test with K. pneumonia (X26); 0.5 µg/mL (≈ 0.345 µM) against Staph. aureus (X1.1). Also, the “activity against Gram-positive bacteria including methicillin-resistant staphylococci” value in the test with Gram-positive bacteria is given as “potent activity only against the Gram-positive bacteria including methicillin-resistant staphylococci”.
On to `CC(=O)OCC1=C(C(=O)O)N2C(=O)[C@@H](NC(=O)Cc3csc(-c4ncccc4O)n3)[C@H]2SC1` [9i, [6R-[6A,7B(R*)]]-3-[(Acetyloxy)methyl]-7-[[[2-(3-hydroxy-2-pyridinyl)-4-thiazolyl]acetyl]amino]-8-oxo-5-thia-1-azabicyclo[4.2.0]oct-2-ene-2-carboxylicAcid], for which the MIC in the test on other Gram(-) bacteria is greater than 64 µg/mL; in [1] (MHA + 4% NaCl, 35° C.), 8 µg/mL; in test [1] (MHA), 4.8 µg/mL (≈ 9.79 µM); in the test with Staph. epiderm. (222) (Staph. epiderm. (222), methicillin-resistant strain, agar dilution, read-out: MIC), 0.125 µg/mL (≈ 0.255 µM); against K. pneumonia (X68), 128 µg/mL (≈ 261 µM); against E. coli (TEM), 128 µg/mL (≈ 261 µM). Also, the MIC in the test on H. influenzae (76) (H. influenzae (76), agar dilution, read-out: MIC) is 2 µg/mL (≈ 4.08 µM); with Strept. pyogenes (C203) (Strept. pyogenes (C203), agar dilution, read-out: MIC), 0.015 µg/mL (≈ 0.0306 µM); against Staph. epiderm. (270) it was 0.5 µg/mL (≈ 1.02 µM); against Staph. aureus (S13E) it was 2 µg/mL (≈ 4.08 µM); in the test with Enter. faecium (X66) (Enter. faecium (X66), agar dilution, read-out: MIC) it was 8 µg/mL (≈ 16.3 µM); in the test on Staph. aureus (V41) (Staph. aureus (V41), agar dilution, read-out: MIC), 0.5 µg/mL (≈ 1.02 µM). In addition, the MIC in the test on Staph. aureus (X400) (Staph. aureus (X400), methicillin-resistant strain, agar dilution, read-out: MIC) turned out to be 4 µg/mL (≈ 8.15 µM); in the test with H. influenzae (C.L.) (H. influenzae (C.L.), agar dilution, read-out: MIC) it was 4 µg/mL (≈ 8.15 µM); against E. coli (EC14), 128 µg/mL (≈ 261 µM); in the test with E. coli (N10) it was 128 µg/mL (≈ 261 µM); in the test with Enter. faecalis (2041) (Enter. faecalis (2041), agar dilution, read-out: MIC), 8 µg/mL (≈ 16.3 µM); against K. pneumonia (KAE), 128 µg/mL (≈ 261 µM). The MIC with K. pneumonia (X26) (K. pneumonia (X26), agar dilution, read-out: MIC) is 1 µg/mL (≈ 2.04 µM); with Staph. aureus (X1.1) (Staph. aureus (X1.1), agar dilution, read-out: MIC) it was 0.125 µg/mL (≈ 0.255 µM); in [2], no more than 16 µg/mL. For the same compound, the “MICs relative to clinically achievable concentrations for cephalosporins” value in test [1] (in words, 4% NaCl) is reported as “remained in the range usually considered to be clinically achievable concentrations for cephalosporins”. The “change of MICs in the presence of NaCl” value in [1] (in words, 4% NaCl) is “only slightly elevated in the presence of NaCl”.
Consider `Cn1nnnc1SCC1=C(C(=O)O)N2C(=O)[C@@H](NC(=O)[C@H](O)c3ccccc3)[C@H]2SC1` [Cefamandole], for which the MIC in test [1] (MHA + 4% NaCl, 35° C.) stood at 13 µg/mL; in [1] (MHA), 6.8 µg/mL (≈ 14.7 µM). In test [3], the “activity against methicillin-resistant staphylococci” value is “among the most active β-lactam antibiotics against methicillin-resistant staphylococci”. Further, in test [4], the “clinical use for treatment of infections caused by methicillin-resistant staphylococci” value is listed as “successfully used clinically for the treatment of infections caused by methicillin-resistant staphylococci”. Also, in [5], the “efficacy in animal models versus vancomycin” value is on record as “poorer efficacy than vancomycin in animal models”.
